Reference: paper PMC7831505, “Monosubstituted Acetophenone Thiosemicarbazones as Potent Inhibitors of Tyrosinase: Synthesis, Inhibitory Studies, and Molecular Docking” (Pharmaceuticals, 2021)
“And” between values parts separate entries of the source, which are not always exact repeats. Equal values may be shown once.

Legend:
mushroom tyrosinase [1] = assay: Tyrosinase enzymatic assay (diphenolase activity, dose-response IC50); format: biochemical, Agaricus bisporus; conditions: for IC50: L-DOPA 1 mM as substrate, pH 6.8, 25 °C, n = 3; for Ratio of IC50 of Kojic Acid to IC50 of TSC: mushroom tyrosinase diphenolase activity
Method: In order to determine the IC50, dose–response analysis for all investigated compounds was performed. […] The enzyme was isolated from Agaricus bisporus, purchased from a local supplier in Wroclaw, and prepared as described in our previous papers, according to known procedures reported in the literature. The full description of enzyme preparation is included in the Supplementary Materials (Section 2). […] L-DOPA was dissolved in a 0.15 mM phosphoric (V) acid solution to a concentration of 5 mM. […] The isolated tyrosinase solution (0.5 mg/mL, 40,000 U/mg) was diluted 10 times in sodium phosphate buffer (0,1 M, pH 6.8). […] The optimal ionic strength and pH for tyrosinase activity were provided by 0.1 M sodium phosphate buffer (pH 6.8). […] The control sample contained the same reagents as the test samples except for the substrate. […] The concentration of L-3,4-dihydroxyphenylalanine (L-DOPA) was 1 mM in all the cases.

[2] = system: B16F10 murine melanoma cells; assay: Measurement of melanin production in α-MSH-stimulated cells; format: cell-based; conditions: for IC50: B16F10 cells stimulated with α-MSH 100 nM, 48 h with inhibitor, absorbance 405 nm, read-out: Inhibition of Melanin Production IC50
Method: In the presence of α-MSH, the cells were treated with the inhibitors after 24 h. […] Kojic acid was used as a positive control, and dimethyl sulfoxide (DMSO) was used as a solvent control. Melanin content was measured spectrophotometrically at 405 nm. […] Cells were maintained in 5% CO2 at 37 °C. […] The cells were seeded into a 96-well plate (5 × 10^3 cells/well) and stimulated with α-MSH (100 nM, Sigma-Aldrich, Taufkirchen, Germany). […] After 48 h of incubation with inhibitors, cells were solubilized in 1 N sodium hydroxide (1 N, 60 °C, 2 h). In order to measure melanin content, absorbance was measured (λ = 405 nm) using a microplate reader.

[3] = system: B16F10 murine melanoma cells; assay: Cell proliferation assay (MTT); format: cell-based; conditions: read-out: Inhibition of Cell Proliferation IC50
Method: In the presence of α-MSH, the cells were treated with the inhibitors after 24 h. […] Kojic acid was used as a positive control, and dimethyl sulfoxide (DMSO) was used as a solvent control. Melanin content was measured spectrophotometrically at 405 nm. […] Cells were maintained in 5% CO2 at 37 °C. Cell viability was estimated using the MTT colorimetric assay as described in our previous papers and by Bellei et al.. […] Kojic acid and DMSO were used as controls. MTT was added to wells (0.625 mg/mL, Sigma-Aldrich, Taufkirchen, Germany) for the last 4 h. Then, lysing buffer was added to dissolve insoluble formazan. The absorbance was measured (λ = 570 nm) using a Thermo Lab Multiscan RC microplate reader.

mushroom tyrosinase [4] = assay: Kinetic studies of tyrosinase inhibition (Lineweaver-Burk and secondary plots); format: biochemical, Agaricus bisporus; conditions: for Inhibition Mechanism / Inhibition Type: diphenolase activity of mushroom tyrosinase, L-DOPA; for Inhibition Type: Lineweaver-Burk plot; for Ki: n = 3, secondary plots, read-out: Ki ± Standard Error (inhibition constant for enzyme-inhibitor complex)
Method: The kinetics of the interaction between TSCs 1–12 and mushroom tyrosinase were determined. […] The inhibition type was determined through creation of the Lineweaver–Burk plot (double reciprocal plot), which enables easier analysis of the Michaelis–Menten plot. […] Inhibition constants Ki were determined from the secondary plots of km (Michaelis constant) versus the inhibitor concentration for competitive inhibition and by the secondary plots of the slope of the lines from the Lineweaver–Burk plot as a function of the inhibitor concentration for mixed-type inhibition. […] They were all competitive inhibitors, whereas meta- and ortho-substituted compounds were mixed inhibitors. The inhibition mechanism for the investigated compounds was also tested. […] L-DOPA was dissolved in a 0.15 mM phosphoric (V) acid solution to a concentration of 5 mM. […] The isolated tyrosinase solution (0.5 mg/mL, 40,000 U/mg) was diluted 10 times in sodium phosphate buffer (0,1 M, pH 6.8). […] The optimal ionic strength and pH for tyrosinase activity were provided by 0.1 M sodium phosphate buffer (pH 6.8). […] The control sample contained the same reagents as the test samples except for the substrate. […] (b) Secondary plot of km versus inhibitor concentrations for determination of Ki for competitive inhibition. (c) Plot to determine the inhibitory mechanism.

| Structure (SMILES) | IC50 (mushroom tyrosinase [1]) | Ratio of IC50 of Kojic Acid to IC50 of TSC (mushroom tyrosinase [1]) | IC50 [2] | IC50 ([3]; 48 h) | Inhibition Mechanism (mushroom tyrosinase [4]) | Inhibition Type (mushroom tyrosinase [4]) | IC50 ([2]; Mus musculus, B16-F10, 48 h) | IC50 ([3]; Mus musculus, B16-F10, 48 h) | Ki (mushroom tyrosinase [4]) | Inhibition Type (mushroom tyrosinase [4]; listed as Compound 3) | Inhibition Type (mushroom tyrosinase [4]; listed as Compound 9) | Ratio of IC50 for the inhibition of B16F10 cell proliferation to IC50 for the inhibition of melanin production ([2]; B16F10 cells) | Inhibition Type (mushroom tyrosinase [4]; listed as Compound 11) |
| --- | --- | --- | --- | --- | --- | --- | --- | --- | --- | --- | --- | --- | --- |
| NC(=S)N/N=C\c1ccccc1 [Benzaldehyde TSC, benzaldehyde thiosemicarbazone, reference compound] | 3.4 µM | 5.6 | – | – | – | – | – | – | – | – | – | – | – |
| C[S+](C)[O-] [DMSO, dimethyl sulfoxide] | – | – | 8020 µM | 166 µM | – | – | – | – | – | – | – | – | – |
| O=c1cc(CO)occ1O [Kojic acid, reference compound] | – | – | – | – | reversible | mixed | 114 µM | 153 µM | – | – | – | – | – |
| COc1ccccc1C(C)=NNC(N)=S [TSC 1, 2’-methoxyacetophenone thiosemicarbazone] | 12.2 µM | 1.6 | – | – | reversible | mixed-type | 39.2 µM | 45.2 µM | 5 ± 1.4 µM | – | – | – | – |
| CC(=NNC(N)=S)c1ccccc1N [TSC 4, 2’-aminoacetophenone thiosemicarbazone] | 11.3 µM | 1.8 | – | – | reversible | mixed-type | 208 µM | – | 8 ± 0.9 µM | – | – | – | – |
| C/C(=N\NC(N)=S)c1ccc(N)cc1 [TSC 6, (E)-4’-Aminoacetophenone thiosemicarbazone] | – | – | – | – | reversible | competitively | 139 µM | 155 µM | 0.2 ± 0.06 µM | – | – | – | – |
| C/C(=N\NC(N)=S)c1ccccc1[N+](=O)[O-] [TSC 10, (E)-2’-Nitroacetophenone thiosemicarbazone] | > 150 µM | 0.1 | – | – | reversible | mixed-type | 77.8 µM | 93.2 µM | 8.6 ± 0.5 µM | – | – | – | – |
| C/C(=N\NC(N)=S)c1cccc([N+](=O)[O-])c1 [TSC 11, (E)-3’-Nitroacetophenone thiosemicarbazone] | 14.2 µM | 1.4 | – | – | reversible | – | 44 µM | 44.8 µM | 0.4 ± 0.02 µM | – | – | – | competitively |
| C/C(=N\NC(N)=S)c1ccc([N+](=O)[O-])cc1 [TSC 12, (E)-4’-Nitroacetophenone thiosemicarbazone] | – | 12.4 | – | – | reversible | mixed | – | 137 µM | – | – | – | – | – |

The next lines start with the values.

| IC50 (mushroom tyrosinase [1]) | Ratio of IC50 of Kojic Acid to IC50 of TSC (mushroom tyrosinase [1]) | IC50 [2] | IC50 ([3]; 48 h) | Inhibition Mechanism (mushroom tyrosinase [4]) | Inhibition Type (mushroom tyrosinase [4]) | IC50 ([2]; Mus musculus, B16-F10, 48 h) | IC50 ([3]; Mus musculus, B16-F10, 48 h) | Ki (mushroom tyrosinase [4]) | Inhibition Type (mushroom tyrosinase [4]; listed as Compound 3) | Inhibition Type (mushroom tyrosinase [4]; listed as Compound 9) | Ratio of IC50 for the inhibition of B16F10 cell proliferation to IC50 for the inhibition of melanin production ([2]; B16F10 cells) | Inhibition Type (mushroom tyrosinase [4]; listed as Compound 11) | Structure (SMILES) |
| --- | --- | --- | --- | --- | --- | --- | --- | --- | --- | --- | --- | --- | --- |
| 1.5 µM | 13.2 | – | – | – | – | – | – | – | – | – | – | – | C/C(=N/NC(N)=S)c1ccccc1 [Acetophenone TSC, acetophenone thiosemicarbazones] |
| 1.9 µM | 10.5 | – | – | reversible | mixed-type | – | 22.4 µM | 1 ± 0.1 µM | – | – | – | – | COc1cccc(/C(C)=N/NC(N)=S)c1 [TSC 2, (E)-3’-Methoxyacetophenone thiosemicarbazone] |
| 1.8 µM | 11.1 | – | – | reversible | competitive | – | 20.3 µM | 0.6 ± 0.01 µM | competitively | – | – | – | COc1ccc(/C(C)=N/NC(N)=S)cc1 [TSC 3, (E)-4’-Methoxyacetophenone thiosemicarbazone] |
| 0.65 µM | 30.6 | – | – | reversible | mixed-type | 88.9 µM | 150 µM | 0.6 ± 0.1 µM | – | – | – | – | C/C(=N\NC(N)=S)c1cccc(N)c1 [TSC 5, (E)-3’-Aminoacetophenone thiosemicarbazone] |
| 1.2 µM | 16.5 | 21.7 µM | – | reversible | mixed-type | < 30 µM | 37.3 µM | 0.7 ± 0.1 µM | – | – | – | – | CC(=NNC(N)=S)c1ccccc1O [TSC 7, 2’-hydroxyacetophenone thiosemicarbazone] |
| 0.95 µM | 20 and 20.9 | – | – | reversible | mixed-type | 69.5 µM | 103 µM | 0.6 ± 0.08 µM | – | – | – | – | C/C(=N\NC(N)=S)c1cccc(O)c1 [TSC 8, (E)-3’-Hydroxyacetophenone thiosemicarbazone] |
| 0.8 µM | 20 and 24.9 | 25.2 µM | – | reversible | competitive | < 30 µM | 115 µM | 0.6 ± 0.06 µM | – | competitively | 4.6 | – | C/C(=N\NC(N)=S)c1ccc(O)cc1 [TSC 9, (E)-4’-Hydroxyacetophenone thiosemicarbazone] |
